Measurements from EP4582413A1, “ARYLTETRAHYDROPYRIDINE COMPOUND AND PEST CONTROL AGENT” (priority 2022, dated 2024).

Columns and labels:
Assay type in all cases: in vivo
[1] = test system: cat fleas (Ctenocephalides felis); assay: whole plant or invertebrate; settings: 72 h, read-out: death rate
Experimental: In 1 ml of acetone, 1 mg of the presently invented compound was dissolved to prepare a chemical solution having a concentration of 1000 ppm. The bottom surface and side surface of each glass container having an inner wall surface area of 25 cm^2 were coated with 250 µl of the chemical solution, and acetone was then volatilized to form a thin film of the compound on the inner wall of the glass container.
Into each of the treated glass containers, five cat fleas (Ctenocephalides felis) imagoes (mixed-sex) were released, and the glass containers were capped and accommodated in a thermostatic room at 25°C. Three days after the release, the number of dead flea individuals were examined, and the death rate was calculated from the same calculation formula as in Test Example 1.

[2] = test system: brown rice planthoppers (Nilaparvata lugens); assay: Insecticidal test for brown rice planthoppers; settings: 500 ppm chemical solution, rice leaf sheaths soaked, third-instar larvae, six days, 25°C; for mortality at 500 µg/mL: Nilaparvata lugens, 144 h, read-out: death rate; for death rate: 8640 min
Experimental: A 10% by mass emulsion of the presently invented compound prepared according to the above formulation example for an emulsion was diluted with water containing a spreader to prepare a chemical solution having a concentration of 500 ppm. Rice leaf sheaths were soaked in the chemical solution for approximately 10 seconds. After the completion of the soaking operation, the rice leaf sheaths treated with the chemical solution were air-dried, and then put in test tubes. Into each test tube, five third-instar brown rice planthoppers (Nilaparvata lugens) larvae were released, and the test tubes were capped with sponge and accommodated in a thermostatic room at 25°C. Six days after the accommodation, the number of dead brown rice planthoppers individuals in the test tubes were examined, and the death rate was calculated from a calculation formula shown below. The test was carried out in duplicate. [formula]

[3] = test system: western flower thrips (Frankliniella occidentalis); assay: Insecticidal activity against western flower thrips; settings: 500 ppm chemical solution sprinkled (2.5 mg/cm^2), larvae on common bean leaf, after 2 days; for mortality at 500 µg/mL: Frankliniella occidentalis, 48 h, read-out: death rate
Experimental: Wet filter paper was laid on each styrol cup having an inner diameter of 7 cm, and a common bean leaf cut into a 3 cm square was placed thereon, and inoculated with 20 western flower thrips (Frankliniella occidentalis) larvae. A 10% by mass emulsion of the presently invented compound prepared according to the above formulation example for an emulsion was diluted with water containing a spreader to prepare a chemical solution having a concentration of 500 ppm. For each styrol cup, 2.5 ml of the chemical solution prepared was sprinkled (2.5 mg/cm^2) with a rotary tower sprinkler. […] The test was carried out in duplicate.

[4] = test system: diamondback moths (Plutella xylostella); assay: Insecticidal test for diamondback moths; settings: 500 ppm chemical solution, leaves soaked, third-instar larvae, six days, 25°C; for mortality at 500 µg/mL: Plutella xylostella, 144 h, read-out: death rate; for death rate: 8640 min
Experimental: A 10% by mass emulsion of the presently invented compound prepared according to the above formulation example for an emulsion was diluted with water containing a spreader to prepare a chemical solution having a concentration of 500 ppm. Chinese olive leaves were soaked in the chemical solution for approximately 10 seconds. After the completion of the soaking operation, the Chinese olive leaves treated with the chemical solution were air-dried, and then put in dishes. Into each dish, five third-instar diamondback moths (Plutella xylostella) larvae were released, and the dishes were capped and accommodated in a thermostatic room at 25°C. […] The test was carried out in duplicate.

Compound	mortality at 10 µg/cm2 [1]	mortality at 500 µg/mL [3]	mortality at 500 µg/mL [4]	also measured
N#Cc1ccc(NC(=O)C2=C(O)CC(c3cnc(Cl)c(-c4ccccc4)c3)NC2=O)cc1 (centres unmarked) [2-090]	≥ 50%	≥ 90%	≥ 90%	mortality at 500 µg/mL [2]: ≥ 90%
O=C(Nc1ccc(F)cn1)C1=C(O)CC(c2cnc(Cl)c(-c3ccc(F)nc3)c2)NC1=O (centres unmarked) [2-009]	≥ 50%	≥ 90%	≥ 90%	mortality at 500 µg/mL [2]: ≥ 90%
O=C(Nc1ccc(F)cc1)C1=C(O)CC(c2cnc(Cl)c(-c3ccccc3)c2)NC1=O (centres unmarked) [2-089]	≥ 50%	≥ 90%	≥ 90%	mortality at 500 µg/mL [2]: ≥ 90%
O=C(Nc1cc(F)ccn1)C1=C(O)CC(c2nc(-c3cscc3Cl)no2)NC1=O (centres unmarked) [3-234]	≥ 50%	≥ 90%	≥ 90%	mortality at 500 µg/mL [2]: ≥ 90%
COc1ccc(NC(=O)C2=C(O)CC(c3cnc(Cl)c(-c4cccc(C)c4)c3)NC2=O)cc1 (centres unmarked) [2-258]	–	–	–	death rate [3]: ≥ 90%
O=C(Nc1cc(F)ccn1)C1=C(O)CC(c2nc(-c3ccncn3)no2)NC1=O (centres unmarked) [3-212]	≥ 50%	–	≥ 90%	–
Cc1ccnc(-c2noc(C3CC(O)=C(C(=O)Nc4ccc(F)cn4)C(=O)N3)n2)c1 (centres unmarked) [3-153]	–	–	–	death rate [2]: ≥ 90%
COc1ccc(-c2cc(C3CC(O)=C(C(=O)Nc4ccc(Cl)nc4)C(=O)N3)cnc2Cl)cn1 (centres unmarked) [2-017]	–	–	–	death rate [4]: ≥ 90%
Cc1cncc(-c2noc(C3CC(O)=C(C(=O)Nc4ccc(F)cn4)C(=O)N3)n2)c1 (centres unmarked) [3-130]	–	–	–	death rate [2]: ≥ 90%
O=C(Nc1cc(F)ccn1)C1=C(O)CC(c2nc(-c3ccc(Cl)c(F)c3)no2)NC1=O (centres unmarked) [3-145]	≥ 50%	≥ 90%	≥ 90%	–
O=C(Nc1ccc([N+](=O)[O-])c(Cl)c1)C1=C(O)CC(c2nc(-c3ccnc(F)c3)no2)NC1=O (centres unmarked) [3-120]	–	–	–	death rate [3]: ≥ 90%
CC(=O)c1ccc(NC(=O)C2=C(O)CC(c3cnc(Cl)c(-c4ccc(F)cc4)c3)NC2=O)cc1 (centres unmarked) [2-295]	–	–	–	death rate [4]: ≥ 90%
O=C(Nc1ccc(F)cc1)C1=C(O)CC(c2nc(-c3ccc(C(F)(F)F)cc3)no2)NC1=O (centres unmarked) [3-004]	–	–	–	death rate [4]: ≥ 90%
C[S+]([O-])c1ccc(NC(=O)C2=C(O)CC(c3cnc(Cl)c(-c4ccc(Cl)nc4)c3)NC2=O)cc1 (centres unmarked) [2-043]	–	–	–	death rate [2]: ≥ 90%
Cc1cncc(-c2cc(C3CC(O)=C(C(=O)Nc4cnccn4)C(=O)N3)cnc2Cl)c1 (centres unmarked) [2-148]	≥ 50%	–	≥ 90%	–
Cc1ccnc(NC(=O)C2=C(O)CC(c3nc(-c4ccccn4)no3)NC2=O)c1 (centres unmarked) [3-152]	–	–	–	mortality at 500 µg/mL [2]: ≥ 90%
O=C(Nc1ccc(F)cc1)C1=C(O)CC(c2cnc(Cl)c(-c3ccc(F)cc3)c2)NC1=O (centres unmarked) [2-229]	≥ 50%	≥ 90%	≥ 90%	–
O=C(Nc1ncccc1F)C1=C(O)CC(c2nc(-c3cnccc3F)no2)NC1=O (centres unmarked) [3-237]	≥ 50%	–	≥ 90%	mortality at 500 µg/mL [2]: ≥ 90%
O=C(Nc1cnccn1)C1=C(O)CC(c2nc(-c3ccc(F)cn3)no2)NC1=O (centres unmarked) [3-261]	–	≥ 90%	–	mortality at 500 µg/mL [2]: ≥ 90%
O=C(Nc1ccc(C(F)(F)F)cn1)C1=C(O)CC(c2cnc(Cl)c(-c3ccc(F)cc3)c2)NC1=O (centres unmarked) [2-230]	–	–	–	death rate [3]: ≥ 90%
C#Cc1ccc(NC(=O)C2=C(O)CC(c3cnc(Cl)c(-c4ccc(F)cc4)c3)NC2=O)cc1 (centres unmarked) [2-243]	–	–	–	death rate [4]: ≥ 90%
CC(=O)c1ccc(-c2cc(C3CC(O)=C(C(=O)Nc4ccc(Cl)cn4)C(=O)N3)cnc2Cl)cc1 (centres unmarked) [2-066]	–	–	–	death rate [4]: ≥ 90%

Compound	mortality at 10 µg/cm2 [1]	mortality at 500 µg/mL [3]	mortality at 500 µg/mL [4]	also measured
Cc1cccc(-c2cc(C3CC(O)=C(C(=O)Nc4ccc([N+](=O)[O-])cc4)C(=O)N3)cnc2Cl)c1 (centres unmarked) [2-279]	≥ 50%	≥ 90%	≥ 90%	–
O=C(Nc1cc(F)ccn1)C1=C(O)CC(c2nc(-c3c(F)cccc3Cl)no2)NC1=O (centres unmarked) [3-143]	–	–	≥ 90%	–
COc1ccc(-c2cc(C3CC(O)=C(C(=O)Nc4ccc(F)cc4)C(=O)N3)ccc2C(F)(F)F)cc1 (centres unmarked) [1-018]	≥ 50%	–	≥ 90%	–
O=C(Nc1nccnn1)C1=C(O)CC(c2cnc(Cl)c(-c3ccc(F)cc3)c2)NC1=O (centres unmarked) [2-237]	–	–	–	death rate [4]: ≥ 90%
O=C(Nc1nncs1)C1=C(O)CC(c2cnc(Cl)c(-c3ccc(F)cc3)c2)NC1=O (centres unmarked) [2-239]	–	≥ 90%	–	–
N#Cc1ccc(NC(=O)C2=C(O)CC(c3cnc(Cl)c(-c4cncc(F)c4)c3)NC2=O)cc1 (centres unmarked) [2-071]	≥ 50%	≥ 90%	–	mortality at 500 µg/mL [2]: ≥ 90%
O=C(Nc1ccccn1)C1=C(O)CC(c2cnc(Cl)c(-c3ccc(F)cc3)c2)NC1=O (centres unmarked) [2-226]	≥ 50%	≥ 90%	≥ 90%	–
O=C(Nc1ccc(Cl)nc1)C1=C(O)CC(c2nc(-c3ccccc3F)no2)NC1=O (centres unmarked) [3-019]	–	–	–	death rate [4]: ≥ 90%
CC(C)(C)OC(=O)c1ccc(NC(=O)C2=C(O)CC(c3cnc(Cl)c(-c4ccc(F)cc4)c3)NC2=O)cc1 (centres unmarked) [2-296]	–	≥ 90%	–	–
Cc1ccc(NC(=O)C2=C(O)CC(c3nc(-c4ccsc4)no3)NC2=O)nc1 (centres unmarked) [3-168]	–	–	–	death rate [2]: ≥ 90%
Cc1ccc(NC(=O)C2=C(O)CC(c3cnc(Cl)c(-c4cccc(C)c4)c3)NC2=O)cc1 (centres unmarked) [2-282]	≥ 50%	≥ 90%	≥ 90%	–
O=C(Nc1ccc(F)cc1)C1=C(O)CC(c2nc(-c3ccc(Cl)cc3)no2)NC1=O (centres unmarked) [3-003]	≥ 50%	≥ 90%	≥ 90%	–
O=C(Nc1ccc(Cl)nn1)C1=C(O)CC(c2cnc(Cl)c(-c3cncc(F)c3)c2)NC1=O (centres unmarked) [2-052]	–	–	–	death rate [2]: ≥ 90%
O=C(Nc1ncc(C(F)(F)F)cn1)C1=C(O)CC(c2cnc(Cl)c(-c3cncc(F)c3)c2)NC1=O (centres unmarked) [2-051]	–	–	–	death rate [2]: ≥ 90%
O=C(Nc1ccc(O)cc1)C1=C(O)CC(c2cnc(Cl)c(-c3ccc(F)cc3)c2)NC1=O (centres unmarked) [2-241]	–	–	–	death rate [4]: ≥ 90%
O=C(Nc1ncccn1)C1=C(O)CC(c2cnc(Cl)c(-c3ccc(F)cc3)c2)NC1=O (centres unmarked) [2-238]	≥ 50%	≥ 90%	–	mortality at 500 µg/mL [2]: ≥ 90%
O=C(Nc1cc(F)ccn1)C1=C(O)CC(c2nc(-c3ccccn3)no2)NC1=O (centres unmarked) [3-045]	≥ 50%	≥ 90%	–	mortality at 500 µg/mL [2]: ≥ 90%
Cc1ccoc1-c1noc(C2CC(O)=C(C(=O)Nc3ccc(F)cn3)C(=O)N2)n1 (centres unmarked) [3-094]	–	–	–	death rate [2]: ≥ 90%
Cc1cccc(-c2cc(C3CC(O)=C(C(=O)Nc4cccnc4F)C(=O)N3)cnc2Cl)c1 (centres unmarked) [2-275]	≥ 50%	–	–	–
Cc1ccc(NC(=O)C2=C(O)CC(c3nc(-c4ccnc(F)c4)no3)NC2=O)cc1Cl (centres unmarked) [3-267]	–	≥ 90%	–	–
Cc1cccc(-c2cc(C3CC(O)=C(C(=O)Nc4nccnn4)C(=O)N3)cnc2Cl)c1 (centres unmarked) [2-270]	≥ 50%	–	–	–
Cc1csc(NC(=O)C2=C(O)CC(c3nc(-c4ccc(F)nc4)no3)NC2=O)n1 (centres unmarked) [3-290]	–	–	–	death rate [2]: ≥ 90%
